Columns and labels:
[1] = molecular target: T1, Alpha-1B adrenergic receptor (Rattus norvegicus, UniProt P15823); test: DRUGMATRIX: Alpha-1B adrenergic receptor radioligand binding (ligand: prazosin); assay type: cell membranes, Wistar, Liver, Membrane; settings: Not Active = under 50% inhibition at 10 µM
T1 sequence (P15823 whole entry): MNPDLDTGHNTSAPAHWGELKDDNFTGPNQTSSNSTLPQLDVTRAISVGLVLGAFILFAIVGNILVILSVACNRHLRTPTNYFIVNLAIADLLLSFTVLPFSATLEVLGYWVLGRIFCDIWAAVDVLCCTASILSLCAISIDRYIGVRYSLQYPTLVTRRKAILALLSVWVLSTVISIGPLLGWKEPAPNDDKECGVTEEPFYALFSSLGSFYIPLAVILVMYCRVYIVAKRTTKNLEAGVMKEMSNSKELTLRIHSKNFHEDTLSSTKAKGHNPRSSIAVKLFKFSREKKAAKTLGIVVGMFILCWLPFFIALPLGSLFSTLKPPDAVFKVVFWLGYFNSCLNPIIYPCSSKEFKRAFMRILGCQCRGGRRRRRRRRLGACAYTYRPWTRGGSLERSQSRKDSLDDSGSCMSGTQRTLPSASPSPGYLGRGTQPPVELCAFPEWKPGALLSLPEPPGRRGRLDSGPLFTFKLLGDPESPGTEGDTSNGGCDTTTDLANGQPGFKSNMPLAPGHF

[2] = molecular target: T2, Alpha-1D adrenergic receptor (Homo sapiens, UniProt P25100); assay type: cell membranes, HEK293, Membrane; settings: hek293; note: in other assays of this panel Not Active means under 50% inhibition at 10 µM
T2 sequence (P25100 whole entry): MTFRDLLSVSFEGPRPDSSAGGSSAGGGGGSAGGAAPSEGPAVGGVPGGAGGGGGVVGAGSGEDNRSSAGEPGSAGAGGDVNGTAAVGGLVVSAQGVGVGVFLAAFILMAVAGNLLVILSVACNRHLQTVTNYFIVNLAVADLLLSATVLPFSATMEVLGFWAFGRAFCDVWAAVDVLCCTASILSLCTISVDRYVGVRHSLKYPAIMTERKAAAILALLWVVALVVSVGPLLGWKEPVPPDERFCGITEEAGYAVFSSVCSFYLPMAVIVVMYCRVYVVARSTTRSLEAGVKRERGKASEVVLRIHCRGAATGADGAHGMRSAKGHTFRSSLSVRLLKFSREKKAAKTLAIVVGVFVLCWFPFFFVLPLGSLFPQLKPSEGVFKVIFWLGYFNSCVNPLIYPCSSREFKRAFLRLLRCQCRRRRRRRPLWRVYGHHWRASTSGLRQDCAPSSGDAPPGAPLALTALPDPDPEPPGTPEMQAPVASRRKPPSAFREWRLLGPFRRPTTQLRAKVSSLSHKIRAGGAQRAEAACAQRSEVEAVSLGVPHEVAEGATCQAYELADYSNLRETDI

[3] = molecular target: Beta-3 adrenergic receptor (Homo sapiens, UniProt P13945); test: DRUGMATRIX: Adrenergic beta3 radioligand binding (ligand: [125I] Cyanopindolol); assay type: cell membranes, HEK293, Membrane; settings: hek293; Not Active = under 50% inhibition at 10 µM
Sequence of Beta-3 adrenergic receptor (P13945 whole entry): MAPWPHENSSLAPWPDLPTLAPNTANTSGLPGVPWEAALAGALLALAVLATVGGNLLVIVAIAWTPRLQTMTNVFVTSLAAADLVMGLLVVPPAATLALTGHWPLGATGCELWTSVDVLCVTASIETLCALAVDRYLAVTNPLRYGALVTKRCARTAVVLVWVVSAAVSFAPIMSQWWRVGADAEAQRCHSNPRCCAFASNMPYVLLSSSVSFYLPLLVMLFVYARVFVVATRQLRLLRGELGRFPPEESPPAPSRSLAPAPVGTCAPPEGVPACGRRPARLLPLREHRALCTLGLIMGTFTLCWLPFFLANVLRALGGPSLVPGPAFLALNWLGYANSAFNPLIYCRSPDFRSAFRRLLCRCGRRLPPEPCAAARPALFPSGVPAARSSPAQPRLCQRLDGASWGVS

[4] = molecular target: 5-hydroxytryptamine receptor 2B (Homo sapiens, UniProt P41595); assay type: cell membranes, CHO-K1, Membrane; settings: cho-k1; note: in other assays of this panel Not Active means under 50% inhibition at 10 µM
Sequence of 5-hydroxytryptamine receptor 2B (P41595 whole entry): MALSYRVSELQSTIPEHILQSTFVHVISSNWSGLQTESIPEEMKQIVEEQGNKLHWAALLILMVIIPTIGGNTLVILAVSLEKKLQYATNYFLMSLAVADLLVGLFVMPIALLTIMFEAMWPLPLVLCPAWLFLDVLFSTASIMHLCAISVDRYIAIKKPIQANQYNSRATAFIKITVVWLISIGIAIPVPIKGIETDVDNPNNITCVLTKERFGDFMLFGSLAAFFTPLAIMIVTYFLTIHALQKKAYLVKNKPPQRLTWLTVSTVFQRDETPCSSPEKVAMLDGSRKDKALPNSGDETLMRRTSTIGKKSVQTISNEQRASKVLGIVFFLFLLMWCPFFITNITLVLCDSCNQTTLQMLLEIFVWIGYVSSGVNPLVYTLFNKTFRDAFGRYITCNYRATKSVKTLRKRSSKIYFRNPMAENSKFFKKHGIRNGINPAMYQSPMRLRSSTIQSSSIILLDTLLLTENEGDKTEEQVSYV

Vasopressin V1a receptor = Vasopressin V1a receptor (Homo sapiens, UniProt P37288); assay type: cell membranes, Membrane; settings: hek293; note: in other assays of this panel Not Active means under 50% inhibition at 10 µM
Sequence of Vasopressin V1a receptor (P37288 whole entry): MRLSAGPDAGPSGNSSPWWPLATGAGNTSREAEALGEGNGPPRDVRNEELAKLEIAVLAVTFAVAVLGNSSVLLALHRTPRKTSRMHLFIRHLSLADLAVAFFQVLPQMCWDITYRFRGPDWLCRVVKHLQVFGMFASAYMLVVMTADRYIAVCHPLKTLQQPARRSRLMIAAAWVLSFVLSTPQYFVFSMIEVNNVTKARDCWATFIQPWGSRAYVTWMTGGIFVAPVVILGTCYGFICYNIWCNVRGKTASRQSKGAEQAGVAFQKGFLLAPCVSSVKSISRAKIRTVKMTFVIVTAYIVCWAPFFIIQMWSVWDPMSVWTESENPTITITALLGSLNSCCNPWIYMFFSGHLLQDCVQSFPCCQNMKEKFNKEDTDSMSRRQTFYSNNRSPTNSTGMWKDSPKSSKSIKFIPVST

[5] = DRUGMATRIX: GABAA, Chloride Channel, TBOB radioligand binding (ligand: [3H] TBOB); assay type: cell membranes, Rattus norvegicus, Wistar, Cerebral cortex, Membrane; settings: Not Active = under 50% inhibition at 10 µM
[6] = DRUGMATRIX: Glutamate, AMPA radioligand binding (ligand: [3H] AMPA); assay type: cell membranes, Rattus norvegicus, Wistar, Cerebral cortex, Membrane; settings: Not Active = under 50% inhibition at 10 µM
[7] = molecular target: T3, Neuropeptide Y receptor type 2 (Homo sapiens, UniProt P49146); assay type: cell membranes, Membrane; settings: kan-ts; note: in other assays of this panel Not Active means under 50% inhibition at 10 µM
T3 sequence (P49146 whole entry): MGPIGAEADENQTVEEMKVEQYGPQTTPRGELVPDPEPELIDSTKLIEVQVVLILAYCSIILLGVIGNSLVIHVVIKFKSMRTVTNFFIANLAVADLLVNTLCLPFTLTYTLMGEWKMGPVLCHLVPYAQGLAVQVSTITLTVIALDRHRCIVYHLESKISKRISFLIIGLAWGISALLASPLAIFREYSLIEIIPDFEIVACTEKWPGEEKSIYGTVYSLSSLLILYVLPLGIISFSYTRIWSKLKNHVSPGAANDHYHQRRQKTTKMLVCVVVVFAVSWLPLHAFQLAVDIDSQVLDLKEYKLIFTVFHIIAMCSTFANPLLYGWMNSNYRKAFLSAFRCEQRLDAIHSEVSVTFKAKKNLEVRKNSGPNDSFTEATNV

[8] = molecular target: Mitogen-activated protein kinase 3 (Homo sapiens, UniProt P27361); test: DRUGMATRIX: Protein Serine/Threonine Kinase, ERK1 enzyme inhibition (substrate: Myelin Basic Protein); parameters: species or system Escherichia coli; settings: Not Active = under 50% inhibition at 10 µM
Sequence of Mitogen-activated protein kinase 3 (P27361 whole entry): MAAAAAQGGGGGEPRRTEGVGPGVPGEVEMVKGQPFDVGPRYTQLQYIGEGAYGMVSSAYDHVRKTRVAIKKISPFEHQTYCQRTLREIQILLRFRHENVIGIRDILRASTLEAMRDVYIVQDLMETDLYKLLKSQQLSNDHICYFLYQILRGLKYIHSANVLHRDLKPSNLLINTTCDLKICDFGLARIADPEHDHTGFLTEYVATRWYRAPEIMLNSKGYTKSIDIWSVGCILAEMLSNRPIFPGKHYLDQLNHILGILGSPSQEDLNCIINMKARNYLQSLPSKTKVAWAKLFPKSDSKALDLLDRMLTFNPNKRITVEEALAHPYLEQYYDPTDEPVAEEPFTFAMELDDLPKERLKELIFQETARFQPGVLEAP

[9] = molecular target: Receptor tyrosine-protein kinase erbB-2 (Homo sapiens, UniProt P04626); test: biochemical; assay type: cell-based, Insect cells; settings: insect cells
[10] = molecular target: Tyrosine-protein kinase Lck (Homo sapiens, UniProt P06239); test: DRUGMATRIX: Protein Tyrosine Kinase, LCK enzyme inhibition (substrate: Poly(Glu:Tyr)); assay type: cell-based, Insect cells; settings: insect cells; Not Active = under 50% inhibition at 10 µM
Sequence of Tyrosine-protein kinase Lck (P06239 whole entry): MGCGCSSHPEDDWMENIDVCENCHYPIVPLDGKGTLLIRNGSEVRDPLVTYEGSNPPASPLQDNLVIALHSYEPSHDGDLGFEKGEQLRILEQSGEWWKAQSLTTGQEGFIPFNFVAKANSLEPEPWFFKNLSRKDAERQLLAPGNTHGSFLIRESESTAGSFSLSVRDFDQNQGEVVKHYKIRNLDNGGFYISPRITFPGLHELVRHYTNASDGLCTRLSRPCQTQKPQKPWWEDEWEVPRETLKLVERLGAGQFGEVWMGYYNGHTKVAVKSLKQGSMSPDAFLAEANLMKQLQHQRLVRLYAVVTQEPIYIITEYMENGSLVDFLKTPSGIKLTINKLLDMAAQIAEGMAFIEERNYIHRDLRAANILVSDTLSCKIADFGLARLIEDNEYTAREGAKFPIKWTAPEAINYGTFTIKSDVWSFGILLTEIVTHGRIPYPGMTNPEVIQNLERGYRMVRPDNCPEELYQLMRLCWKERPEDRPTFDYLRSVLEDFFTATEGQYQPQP

Glucocorticoid receptor = molecular target: T4, Glucocorticoid receptor (Homo sapiens, UniProt P04150); settings: hela s3; note: in other assays of this panel Not Active means under 50% inhibition at 10 µM
T4 sequence (P04150 whole entry): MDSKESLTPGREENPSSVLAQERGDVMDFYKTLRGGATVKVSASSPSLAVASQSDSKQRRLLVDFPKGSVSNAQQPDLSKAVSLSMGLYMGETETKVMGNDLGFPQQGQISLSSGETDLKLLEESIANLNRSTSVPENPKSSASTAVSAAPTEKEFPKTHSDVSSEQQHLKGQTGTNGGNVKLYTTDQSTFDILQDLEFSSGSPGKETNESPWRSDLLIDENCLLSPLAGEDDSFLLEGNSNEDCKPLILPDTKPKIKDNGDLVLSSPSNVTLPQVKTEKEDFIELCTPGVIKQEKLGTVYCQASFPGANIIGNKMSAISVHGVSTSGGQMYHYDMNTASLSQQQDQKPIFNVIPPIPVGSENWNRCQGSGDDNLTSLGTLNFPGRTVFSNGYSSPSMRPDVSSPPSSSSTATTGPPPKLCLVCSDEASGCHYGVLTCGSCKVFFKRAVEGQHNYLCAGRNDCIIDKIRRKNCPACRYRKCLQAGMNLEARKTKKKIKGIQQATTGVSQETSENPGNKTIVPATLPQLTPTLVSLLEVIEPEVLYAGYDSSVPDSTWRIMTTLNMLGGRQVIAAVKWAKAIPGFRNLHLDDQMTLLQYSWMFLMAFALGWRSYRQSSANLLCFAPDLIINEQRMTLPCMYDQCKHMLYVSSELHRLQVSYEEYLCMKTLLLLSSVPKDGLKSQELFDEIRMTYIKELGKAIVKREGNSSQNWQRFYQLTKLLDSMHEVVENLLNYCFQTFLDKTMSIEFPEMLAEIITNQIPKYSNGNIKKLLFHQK

N#C[C@H](O[C@@H]1O[C@H](CO[C@@H]2O[C@H](CO)[C@@H](O)[C@H](O)[C@H]2O)[C@@H](O)[C@H](O)[C@H]1O)c1ccccc1 [AMYGDALIN]
Not Active: IC50 [1] | IC50 [2] | IC50 [3] | IC50 [4] | IC50 (Vasopressin V1a receptor) | IC50 [5] | Ki [5] | IC50 [6] | Ki [6] | IC50 [7] | IC50 [8] | IC50 [9] | IC50 [10] | IC50 (Glucocorticoid receptor)

CCOC(=O)OC(C)OC1=C(C(=O)Nc2ccccn2)N(C)S(=O)(=O)c2ccccc21 (stereo unspecified) [AMPIROXICAM]
Not Active: IC50 [1] | IC50 [2] | IC50 [3] | IC50 [4] | IC50 (Vasopressin V1a receptor) | IC50 [5] | Ki [5] | IC50 [6] | Ki [6] | IC50 [7] | IC50 [8] | IC50 [9] | IC50 [10] | IC50 (Glucocorticoid receptor)

GOLD SODIUM THIOMALATE
Not Active: IC50 [1] | Ki [1] | IC50 [2] | Ki [2] | IC50 [3] | Ki [3] | IC50 [4] | Ki [4] | IC50 (Vasopressin V1a receptor) | Ki (Vasopressin V1a receptor) | IC50 [5] | Ki [5] | IC50 [6] | Ki [6] | IC50 [7] | Ki [7] | IC50 [8] | Ki [8] | IC50 [9] | Ki [9] | IC50 [10] | Ki [10] | IC50 (Glucocorticoid receptor) | Ki (Glucocorticoid receptor)

CCCC[C@@H](CC)COC(=O)c1ccccc1C(=O)OC[C@@H](CC)CCCC [BIS(2-ETHYLHEXYL)PHTHALATE]
Not Active: IC50 [1] | IC50 [2] | IC50 [3] | IC50 [4] | IC50 (Vasopressin V1a receptor) | IC50 [5] | Ki [5] | IC50 [6] | Ki [6] | IC50 [7] | IC50 [8] | IC50 [9] | IC50 [10] | IC50 (Glucocorticoid receptor)

CCc1ccc(C(=O)C(C)CN2CCCCC2)cc1 (stereo unspecified) [EPERISONE]
Not Active: IC50 [1] | IC50 [2] | IC50 [3] | IC50 [4] | IC50 (Vasopressin V1a receptor) | IC50 [5] | Ki [5] | IC50 [6] | Ki [6] | IC50 [7] | IC50 [8] | IC50 [9] | IC50 [10] | IC50 (Glucocorticoid receptor)

CC(C)n1c(/C=C/C(O)CC(O)CC(=O)O)c(-c2ccc(F)cc2)c2ccccc21 (stereo unspecified) [FLUVASTATIN]
Not Active: IC50 [1] | IC50 [2] | IC50 [3] | IC50 [4] | IC50 (Vasopressin V1a receptor) | IC50 [5] | Ki [5] | IC50 [6] | Ki [6] | IC50 [7] | IC50 [8] | IC50 [9] | IC50 [10] | IC50 (Glucocorticoid receptor)

CN(C)[C@@H]1C(O)=C(C(N)=O)C(=O)[C@@]2(O)C(O)=C3C(=O)c4c(O)cccc4[C@@](C)(O)[C@H]3[C@H](O)[C@@H]12 [OXYTETRACYCLINE]
Not Active: IC50 [1] | IC50 [2] | IC50 [3] | IC50 [4] | IC50 (Vasopressin V1a receptor) | IC50 [5] | Ki [5] | IC50 [6] | Ki [6] | IC50 [7] | IC50 [8] | IC50 [9] | IC50 [10] | IC50 (Glucocorticoid receptor)

O=C1CN=C(c2ccccc2)c2cc([N+](=O)[O-])ccc2N1 [NITRAZEPAM]
Not Active: IC50 [1] | IC50 [2] | IC50 [3] | IC50 [4] | IC50 (Vasopressin V1a receptor) | IC50 [5] | Ki [5] | IC50 [6] | Ki [6] | IC50 [7] | IC50 [8] | IC50 [9] | IC50 [10] | IC50 (Glucocorticoid receptor)

CC(=O)CCCCn1c(=O)c2c(ncn2C)n(C)c1=O [PENTOXIFYLLINE]
Not Active: IC50 [1] | IC50 [2] | IC50 [3] | IC50 [4] | IC50 (Vasopressin V1a receptor) | IC50 [5] | Ki [5] | IC50 [6] | Ki [6] | IC50 [7] | IC50 [8] | IC50 [9] | IC50 [10] | IC50 (Glucocorticoid receptor)

Source: ChEMBL document CHEMBL1909046, “DrugMatrix in vitro pharmacology data”
